Data on 23 compounds can be found in patent publication US9694016B2 (Novartis AG, priority 2013, dated 2017).

Chain of b-Raf (V600E) (P15056 whole entry V600E): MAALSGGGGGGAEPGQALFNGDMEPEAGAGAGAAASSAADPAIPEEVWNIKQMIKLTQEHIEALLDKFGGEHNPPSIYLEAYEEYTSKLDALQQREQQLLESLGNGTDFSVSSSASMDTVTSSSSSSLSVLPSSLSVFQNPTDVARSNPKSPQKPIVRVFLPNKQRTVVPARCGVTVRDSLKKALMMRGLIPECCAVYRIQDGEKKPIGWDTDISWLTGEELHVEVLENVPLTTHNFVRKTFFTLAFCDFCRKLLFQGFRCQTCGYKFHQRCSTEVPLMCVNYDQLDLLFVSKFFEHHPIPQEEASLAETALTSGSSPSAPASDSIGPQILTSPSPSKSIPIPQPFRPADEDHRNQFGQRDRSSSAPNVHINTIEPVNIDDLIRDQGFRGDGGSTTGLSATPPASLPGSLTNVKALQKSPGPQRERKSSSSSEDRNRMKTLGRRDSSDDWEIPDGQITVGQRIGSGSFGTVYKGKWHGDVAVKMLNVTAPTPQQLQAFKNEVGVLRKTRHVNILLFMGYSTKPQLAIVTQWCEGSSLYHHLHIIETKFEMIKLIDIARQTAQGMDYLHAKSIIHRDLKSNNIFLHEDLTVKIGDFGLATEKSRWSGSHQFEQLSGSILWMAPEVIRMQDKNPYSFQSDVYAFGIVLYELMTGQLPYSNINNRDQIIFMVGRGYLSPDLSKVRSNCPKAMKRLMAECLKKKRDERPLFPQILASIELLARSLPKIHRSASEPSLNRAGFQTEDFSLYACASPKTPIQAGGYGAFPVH

One assay has as its target b-Raf (V600E) (Homo sapiens (Human), UniProt P15056, V600E). Particulars: read-out: b-Raf IC-50; AlphaScreen, 60 min pre-incubation, 3 hours reaction. A general note: Alpha assays give light when donor and acceptor beads are brought close together.
Turning to `CCNc1nc(-c2cc(C(=O)Nc3cccc(C(F)F)c3)ccc2C)cc(N2CCOCC2)n1` [Example 733, N-(3-(difluoromethyl)phenyl)-3-(2-(ethylamino)-6-morpholinopyrimidin-4-yl)-4-methylbenzamide], the IC50 is 0.8 nM.

For the compound `Cc1ccc(NC(=O)c2cnnc(C3CC3)c2)cc1-c1cc(N2CCOCC2)n(C)c(=O)c1` [Example 496, 6-cyclopropyl-N-(4-methyl-3-(1-methyl-6-morpholino-2-oxo-1,2-dihydropyridin-4-yl)phenyl)pyridazine-4-carboxamide], the IC50 came out at 0.9 nM.

Turning to `Cc1ccc(NC(=O)c2cc(CN)cc(C(F)(F)F)c2)cc1-c1cc(N2CCOCC2)c(=O)n(C)c1` [Example 470, 3-(aminomethyl)-N-(4-methyl-3-(1-methyl-5-morpholino-6-oxo-1,6-dihydropyridin-3-yl)phenyl)-5-(trifluoromethyl)benzamide], the IC50 is 4.5 nM.

As for `CCOc1nnc(-c2cc(NC(=O)c3cnnc(C(C)(C)C#N)c3)ccc2C)cc1N1CCOCC1` [Example 567, 6-(2-cyanopropan-2-yl)-N-(3-(6-ethoxy-5-morpholinopyridazin-3-yl)-4-methylphenyl)pyridazine-4-carboxamide], the IC50 is 2 nM.

As for `Cc1ccc(NC(=O)c2ccnc(C(F)(F)F)c2)cc1-c1cc(N2CCOCC2)c(OCCO)nn1` [Example 585, N-(3-(6-(2-hydroxyethoxy)-5-morpholinopyridazin-3-yl)-4-methylphenyl)-2-(trifluoromethyl)isonicotinamide], the IC50 came to 1.4 nM.

As for `Cc1ncc(NC(=O)c2ccnc(C(C)(F)F)c2)cc1-c1cc(N2CCOCC2)c(=O)n(C)n1` [Example 678, 2-(1,1-difluoroethyl)-N-(6-methyl-5-(1-methyl-5-morpholino-6-oxo-1,6-dihydropyridazin-3-yl)pyridin-3-yl)isonicotinamide], the IC50 was determined as 6.4 nM.

Take `CCNc1nc(-c2cc(NC(=O)c3ccnc(C(C)(C)O)c3)ccc2C)cc(N2CCOC[C@@H]2C)n1` [Example 713, (S)—N-(3-(2-(ethylamino)-6-(3-methylmorpholino)pyrimidin-4-yl)-4-methylphenyl)-2-(2-hydroxypropan-2-yl)isonicotinamide]: the IC50 stood at 2.5 nM.

The same assay, now with this note: read-out: b-Raf IC-50; AlphaScreen, 60 min pre-incubation, reaction 3 hours at room temperature.
As to `Cc1ncc(NC(=O)c2cccc(C(F)(F)F)c2)cc1-c1cc(N2CCOCC2)c(OCC(F)F)nn1` [Example 918, N-(5-(6-(2,2-difluoroethoxy)-5-morpholinopyridazin-3-yl)-6-methylpyridin-3-yl)-3-(trifluoromethyl)benzamide], the IC50 turned out to be 1.17 nM.

For the compound `Cc1ccc(NC(=O)c2cnnc(C(C)(C)C#N)c2)cc1-c1cc(NCCO)nc(N2CCOCC2)c1F` [Example 1012, 6-(2-cyanopropan-2-yl)-N-(3-(3-fluoro-6-((2-hydroxyethyl)amino)-2-morpholinopyridin-4-yl)-4-methylphenyl)pyridazine-4-carboxamide], the IC50 is 70.6 nM.

For the compound `Cc1ncc(NC(=O)c2ccnc(C(C)(C)F)c2)cc1-c1cc(N2CCOCC2)c(OC(C)C)nn1` [Example 911, 2-(2-fluoropropan-2-yl)-N-(5-(6-isopropoxy-5-morpholinopyridazin-3-yl)-6-methylpyridin-3-yl)isonicotinamide], the IC50 came to 3.58 nM.

As for `Cc1ccc(NC(=O)c2cc(C(C)(C)C#N)ccn2)cc1-c1cc(N2CCOCC2)n(C)c(=O)c1` [Example 900, 4-(2-cyanopropan-2-yl)-N-(4-methyl-3-(1-methyl-6-morpholino-2-oxo-1,2-dihydropyridin-4-yl)phenyl)picolinamide], the IC50 was found to be 3.17 nM.

Consider `Cc1ccc(NC(=O)c2ccnc(C(C)(C)C#N)c2)cc1-c1nc2c(c(N3CCOCC3)n1)CN(C(=O)OC(C)(C)C)CC2` [Example 864, tert-butyl 2-(5-(2-(2-cyanopropan-2-yl)isonicotinamido)-2-methylphenyl)-4-morpholino-7,8-dihydropyrido[4,3-d]pyrimidine-6(5H)-carboxylate], for which the IC50 is 70.2 nM.

For the compound `Cc1ncc(NC(=O)c2cc(C(F)(F)F)ccn2)cc1-c1cc(N2CCOCC2)c(OCC(F)F)nn1` [Example 916, N-(5-(6-(2,2-difluoroethoxy)-5-morpholinopyridazin-3-yl)-6-methylpyridin-3-yl)-4-(trifluoromethyl)picolinamide], the IC50 turned out to be 1.31 nM.

Take `Cc1ncc(NC(=O)c2cccc(C(F)F)c2)cc1-c1cc(N2CCOCC2)c2nccn2c1` [Example 880, 3-(difluoromethyl)-N-(6-methyl-5-(8-morpholinoimidazo[1,2-a]pyridin-6-yl)pyridin-3-yl)benzamide]: the IC50 is 3.2 nM.

For the compound `Cc1ncc(NC(=O)c2cncc(C(F)(F)F)c2)cc1-c1cnc(OC(C)C)c(N2CCOCC2)c1` [Example 960, N-(6′-isopropoxy-2-methyl-5′-morpholino-[3,3′-bipyridin]-5-yl)-5-(trifluoromethyl)nicotinamide], the IC50 came out at 2.66 nM.

Turning to `Cc1ncc(NC(=O)c2ccnc(C(F)(F)F)c2)cc1-c1cc(N2CCOCC2)nc(N2CC(C)(O)C2)c1` [Example 1104, N-(2′-(3-hydroxy-3-methylazetidin-1-yl)-2-methyl-6′-morpholino-[3,4′-bipyridin]-5-yl)-2-(trifluoromethyl)isonicotinamide], the IC50 was 7.64 nM.

Turning to `Cc1ncc(NC(=O)c2cc(C(C)(C)F)ccn2)cc1-c1cnc(OCCO)c(N2CCOCC2)c1` [Example 971, 4-(2-fluoropropan-2-yl)-N-(6′-(2-hydroxyethoxy)-2-methyl-5-morpholino-[3,3′-bipyridin]-5-yl)picolinamide], the IC50 came out at 8.27 nM.

In the case of `CNC(=O)c1ncc(-c2cc(NC(=O)c3ccnc(C(C)(F)F)c3)ccc2C)cc1N1CCOCC1` [Example 987, 5-(5-(2-(1,1-difluoroethyl)isonicotinamido)-2-methylphenyl)-N-methyl-3-morpholinopicolinamide], the IC50 was 2.63 nM.

On to `CCN1CCN(c2cc(C(=O)Nc3cnc(C)c(-c4cc(N5CCOCC5)nc(N5CC(O)C5)c4)c3)cc(C(F)(F)F)c2)CC1` [Example 1087, 3-(4-ethylpiperazin-1-yl)-N-(2′-(3-hydroxyazetidin-1-yl)-2-methyl-6′-morpholino-[3,4′-bipyridin]-5-yl)-5-(trifluoromethyl)benzamide], for which the IC50 amounted to 26.5 nM.

Regarding `COc1ncc(-c2cc(NC(=O)c3cccc(C(F)(F)F)c3)nnc2C)cc1N1CCOCC1` [Example 934, N-(5-(6-methoxy-5-morpholinopyridin-3-yl)-6-methylpyridazin-3-yl)-3-(trifluoromethyl)benzamide], the IC50 was determined as 4.2 nM.

On to `Cc1ncc(NC(=O)c2cnnc(C3CC3)c2)cc1-c1cc(N2CCOCC2)nc(N2CC(C)(O)C2)c1` [Example 1101, 6-cyclopropyl-N-(2′-(3-hydroxy-3-methylazetidin-1-yl)-2-methyl-6′-morpholino-[3,4′-bipyridin]-5-yl)pyridazine-4-carboxamide], for which the IC50 turned out to be 13.7 nM.

The assay is the same for the next values; noted with them: read-out: b-Raf IC-50; Table 2; AlphaScreen, 3 hours reaction.
For `CCOc1ncc(-c2cc(NC(=O)c3cc(C4CC4)on3)cnc2C)cc1N1CCOCC1` [Example 245, 5-cyclopropyl-N-(6′-ethoxy-2-methyl-5′-morpholino-[3,3′-bipyridin]-5-yl)isoxazole-3-carboxamide], the IC50 stood at 1.3 nM.

Consider `Cc1ncc(NC(=O)c2ccnc(C(C)(C)F)c2)cc1-c1cnc(OCCO)c(N2CCOCC2)c1` [Example 299, 2-(2-fluoropropan-2-yl)-N-(6′-(2-hydroxyethoxy)-2-methyl-5′-morpholino-[3,3′-bipyridin]-5-yl)isonicotinamide], for which the IC50 stood at 6.9 nM.
